The source of these data is patent US10851105B2, “Bicyclic heterocycles as FGFR4 inhibitors” (Incyte Corporation, priority 2014, dated 2020).

Assay [1] addresses FGFR1 (Homo sapiens (Human), UniProt P11362). Kind of assay: FGFR Enzymatic Assay (FRET peptide phosphorylation), FGFR1. As to conditions: for FGFR1/FGFR4: IC50 ratio.
Method: (§1) The inhibitor potency of the exemplified compounds was measured in an enzyme assay that measures peptide phosphorylation using FRET measurements to detect product formation. Inhibitors were serially diluted in DMSO and a volume of 0.5 μL was transferred to the wells of a 384-well plate. For FGFR3, a 10 μL volume of FGFR3 enzyme (Millipore) diluted in assay buffer (50 mM HEPES, 10 mM MgCl2, 1 mM EGTA, 0.01% Tween-20, 5 mM DTT, pH 7.5) was added to the plate and pre-incubated for a time between 5-10 minutes and up to 4 hours. Appropriate controls (enzyme blank and enzyme with no inhibitor) were included on the plate. […] The plate was incubated at 25° C. for 1 hr. […] The plate was allowed to equilibrate for ˜1 hr before scanning the wells on a PheraStar plate reader (BMG Labtech).
(§2) The enzymes were purchased from Millipore or Invitrogen.
(§3) GraphPad prism3 was used to analyze the data. The IC50 values were derived by fitting the data to the equation for a sigmoidal dose-response with a variable slope. Y=Bottom+(Top-Bottom)/(1+10^((Log IC50−X)*HillSlope)) where X is the logarithm of concentration and Y is the response.
The target of assay [2] is FGFR2 (Homo sapiens (Human), UniProt P21802). Kind of assay: FGFR Enzymatic Assay (FRET peptide phosphorylation), FGFR2. The conditions noted are these: for FGFR2/FGFR4: IC50 ratio.
Sequence of FGFR2 (P21802 22-821): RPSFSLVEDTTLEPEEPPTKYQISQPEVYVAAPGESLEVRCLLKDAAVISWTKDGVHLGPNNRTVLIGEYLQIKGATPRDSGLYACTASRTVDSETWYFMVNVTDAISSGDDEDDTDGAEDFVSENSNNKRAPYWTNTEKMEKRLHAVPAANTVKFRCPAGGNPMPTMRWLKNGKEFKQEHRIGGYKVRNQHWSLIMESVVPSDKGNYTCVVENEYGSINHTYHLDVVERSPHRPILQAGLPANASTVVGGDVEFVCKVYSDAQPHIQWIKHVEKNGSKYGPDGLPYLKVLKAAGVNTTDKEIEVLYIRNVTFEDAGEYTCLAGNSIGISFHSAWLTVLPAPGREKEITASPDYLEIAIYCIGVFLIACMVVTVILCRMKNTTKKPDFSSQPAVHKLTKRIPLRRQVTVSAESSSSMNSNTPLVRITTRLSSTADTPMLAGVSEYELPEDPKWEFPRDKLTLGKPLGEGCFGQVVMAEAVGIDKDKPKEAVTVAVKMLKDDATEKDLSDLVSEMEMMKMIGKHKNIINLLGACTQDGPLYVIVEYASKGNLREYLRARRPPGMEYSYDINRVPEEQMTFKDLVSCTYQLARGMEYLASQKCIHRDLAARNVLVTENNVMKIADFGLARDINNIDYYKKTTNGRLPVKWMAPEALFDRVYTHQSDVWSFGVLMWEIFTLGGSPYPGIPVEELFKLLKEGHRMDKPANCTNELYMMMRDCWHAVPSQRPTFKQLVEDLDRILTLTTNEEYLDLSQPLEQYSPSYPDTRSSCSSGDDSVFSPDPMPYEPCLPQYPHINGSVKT
Method: as §1, §2, §3
Assay [3] has as its target FGFR3 (Homo sapiens (Human), UniProt P22607). Kind of assay: FGFR Enzymatic Assay (FRET peptide phosphorylation), FGFR3. As to conditions: for FGFR3/FGFR4: IC50 ratio; for IC50: read-out: FGFR3 IC50.
Method: Inhibitors were serially diluted in DMSO and a volume of 0.5 μL was transferred to the wells of a 384-well plate. For FGFR3, a 10 μL volume of FGFR3 enzyme (Millipore) diluted in assay buffer (50 mM HEPES, 10 mM MgCl2, 1 mM EGTA, 0.01% Tween-20, 5 mM DTT, pH 7.5) was added to the plate and pre-incubated for a time between 5-10 minutes and up to 4 hours. Appropriate controls (enzyme blank and enzyme with no inhibitor) were included on the plate. […] The plate was incubated at 25° C. for 1 hr. […] The plate was allowed to equilibrate for ˜1 hr before scanning the wells on a PheraStar plate reader (BMG Labtech).
as §3
The target in assay [4] is FGFR4 (Homo sapiens (Human), UniProt P22455). Kind of assay: FGFR Enzymatic Assay (FRET peptide phosphorylation), FGFR4.
Sequence of FGFR4 (P22455 22-802): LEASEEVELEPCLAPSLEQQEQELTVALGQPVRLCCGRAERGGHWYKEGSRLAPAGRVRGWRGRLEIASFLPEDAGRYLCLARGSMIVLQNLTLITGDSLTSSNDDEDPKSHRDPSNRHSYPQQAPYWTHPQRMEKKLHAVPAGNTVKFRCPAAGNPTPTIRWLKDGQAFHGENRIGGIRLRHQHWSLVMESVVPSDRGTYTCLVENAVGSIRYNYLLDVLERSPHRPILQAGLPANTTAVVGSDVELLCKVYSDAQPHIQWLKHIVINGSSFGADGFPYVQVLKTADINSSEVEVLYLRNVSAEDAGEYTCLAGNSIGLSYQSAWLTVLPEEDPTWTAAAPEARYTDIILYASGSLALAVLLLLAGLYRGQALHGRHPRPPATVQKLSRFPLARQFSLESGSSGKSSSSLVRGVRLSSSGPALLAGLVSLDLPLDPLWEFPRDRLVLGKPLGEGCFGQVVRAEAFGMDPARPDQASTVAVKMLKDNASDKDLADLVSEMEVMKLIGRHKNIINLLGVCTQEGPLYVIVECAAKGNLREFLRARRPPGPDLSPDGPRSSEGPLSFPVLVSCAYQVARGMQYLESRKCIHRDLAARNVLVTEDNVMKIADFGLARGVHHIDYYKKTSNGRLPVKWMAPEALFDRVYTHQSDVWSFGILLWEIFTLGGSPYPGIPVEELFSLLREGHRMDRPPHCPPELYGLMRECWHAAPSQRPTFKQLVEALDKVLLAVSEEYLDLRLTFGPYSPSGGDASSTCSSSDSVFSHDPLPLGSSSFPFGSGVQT
Method: as §1, §2, §3
The mark [5] stands for this setting: pre-incubated for 5 to 10 minutes.
[6] abbreviates: read-out: FGFR1 IC50, pre-incubated for 5 to 10 minutes.
[7] abbreviates: read-out: FGFR2 IC50, pre-incubated for 5 to 10 minutes.

Like-named read-outs stand apart in the source and are kept apart here.

Sequence of FGFR1 (P11362 22-822): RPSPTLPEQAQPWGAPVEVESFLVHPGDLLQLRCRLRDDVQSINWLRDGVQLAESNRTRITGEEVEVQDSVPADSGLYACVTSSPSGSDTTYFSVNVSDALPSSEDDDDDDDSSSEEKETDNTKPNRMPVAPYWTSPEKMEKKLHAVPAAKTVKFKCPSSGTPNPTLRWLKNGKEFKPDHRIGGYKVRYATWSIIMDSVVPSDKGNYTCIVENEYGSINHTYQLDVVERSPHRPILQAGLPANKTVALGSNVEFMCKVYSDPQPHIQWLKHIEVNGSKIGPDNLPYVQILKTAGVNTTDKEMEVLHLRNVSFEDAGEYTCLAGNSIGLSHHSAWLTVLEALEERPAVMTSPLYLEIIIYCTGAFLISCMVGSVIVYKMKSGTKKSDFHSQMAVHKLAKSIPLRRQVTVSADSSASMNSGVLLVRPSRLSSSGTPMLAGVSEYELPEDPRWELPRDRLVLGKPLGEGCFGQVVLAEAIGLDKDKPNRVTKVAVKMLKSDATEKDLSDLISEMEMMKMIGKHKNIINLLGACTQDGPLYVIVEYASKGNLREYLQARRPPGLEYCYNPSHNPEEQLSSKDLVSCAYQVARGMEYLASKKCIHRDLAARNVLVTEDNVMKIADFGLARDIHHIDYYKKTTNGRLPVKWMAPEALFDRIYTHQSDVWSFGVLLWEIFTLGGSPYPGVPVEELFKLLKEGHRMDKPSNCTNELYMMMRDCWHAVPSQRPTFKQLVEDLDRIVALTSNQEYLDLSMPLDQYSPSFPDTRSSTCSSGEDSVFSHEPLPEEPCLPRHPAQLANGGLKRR
Sequence of FGFR3 (P22607 23-806): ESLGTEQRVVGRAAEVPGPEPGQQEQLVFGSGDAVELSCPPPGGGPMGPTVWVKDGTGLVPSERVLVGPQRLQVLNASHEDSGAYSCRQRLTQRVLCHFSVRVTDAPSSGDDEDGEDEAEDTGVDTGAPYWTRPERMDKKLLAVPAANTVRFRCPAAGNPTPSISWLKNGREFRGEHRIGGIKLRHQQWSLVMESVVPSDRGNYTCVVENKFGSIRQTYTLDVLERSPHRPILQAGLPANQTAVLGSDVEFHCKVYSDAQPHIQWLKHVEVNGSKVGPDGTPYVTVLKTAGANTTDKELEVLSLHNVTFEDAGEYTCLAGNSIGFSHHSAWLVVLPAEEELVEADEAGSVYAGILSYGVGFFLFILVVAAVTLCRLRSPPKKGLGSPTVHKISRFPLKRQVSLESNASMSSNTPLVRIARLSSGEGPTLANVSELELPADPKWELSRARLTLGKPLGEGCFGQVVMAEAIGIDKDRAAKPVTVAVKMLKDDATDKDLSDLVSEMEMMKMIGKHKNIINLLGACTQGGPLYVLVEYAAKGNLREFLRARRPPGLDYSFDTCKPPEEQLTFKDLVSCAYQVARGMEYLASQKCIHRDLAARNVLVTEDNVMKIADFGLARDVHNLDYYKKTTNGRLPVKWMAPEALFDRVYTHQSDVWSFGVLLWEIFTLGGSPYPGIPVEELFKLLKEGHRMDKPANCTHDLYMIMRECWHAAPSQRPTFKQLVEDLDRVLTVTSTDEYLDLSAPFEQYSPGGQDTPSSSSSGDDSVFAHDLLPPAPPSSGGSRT

One may read the IC50 as the concentration that gives 50% inhibition. Consider `C=CC(=O)Nc1ccc(N2CCN(C)CC2)cc1Nc1cc2c(cn1)CN(c1c(F)c(OC)cc(OC)c1F)C(=O)C21CC1` [Example 11, N-(2-(2′-(2,6-difluoro-3,5-dimethoxyphenyl)-3′-oxo-2′,3′-dihydro-1′H-spiro [cyclopropane-1,4′-[2,7]naphthyridine]-6′-ylamino)-4-(4-methylpiperazin-1-yl)phenyl)acrylamide], for which the IC50 was 30 to 200 nM in assay [1] (FGFR1 IC50 (nM), pre-incubated for 4 hours); > 200 nM in assay [1] (setting [6]); 30 to 200 nM in assay [2]; > 200 nM in assay [2] (setting [7]); > 200 nM in assay [3] (setting [5]); > 200 nM in assay [3] (pre-incubated for 4 hours). The half-inhibitory concentration (IC50) in assay [4] (read-out: FGFR4 IC50, pre-incubated for 5 to 10 minutes) was < 10 nM; in assay [4] (read-out: FGFR4 IC50, pre-incubated for 4 hours), < 10 nM. Also, the FGFR1/FGFR4 is >10 in assay [1] (setting [5]) and >25 in assay [1] (pre-incubated for 4 hours). Also, the FGFR2/FGFR4 in assay [2] (setting [5]) is >10; in assay [2] (pre-incubated for 4 hours), >25. For the same compound, the FGFR3/FGFR4 was >10 in assay [3] (setting [5]) and >100 in assay [3] (pre-incubated for 4 hours).

For the compound `C=CC(=O)N[C@H]1CCC[C@H]1Oc1ncc2c(n1)C1(CC1)C(=O)N(c1c(F)c(OC)cc(OC)c1F)C2` [Example 12, N-((1 S,2R)-2-(6′-(2,6-difluoro-3,5-dimethoxyphenyl)-7′-oxo-6′,7′-dihydro-5′H-spiro[cyclopropane-1,8′-pyrido[4,3-d]pyrimidine]-2′-yloxy)cyclopentyl)acrylamide], the FGFR1/FGFR4 in assay [1] (setting [5]) is given as >10; in assay [1] (pre-incubated for 4 hours), >100. Also, the half-maximal inhibitory concentration (IC50) in assay [1] (setting [6]) was > 200 nM; in assay [1] (read-out: FGFR1 IC50, pre-incubated for 4 hours) it was > 200 nM; in assay [2] (setting [7]), > 200 nM; in assay [2] (read-out: FGFR2 IC50, pre-incubated for 4 hours), > 200 nM; in assay [3] (setting [5]), > 200 nM; in assay [3] (pre-incubated for 4 hours), > 200 nM. Further, the half-maximal inhibitory concentration (IC50) was in the range of 30 to 200 nM in assay [4] (FGFR4 IC50 (nM), pre-incubated for 5 to 10 minutes) and 10 to 30 nM in assay [4] (FGFR4 IC50 (nM), pre-incubated for 4 hours). Besides, the values for the FGFR2/FGFR4 in assay [2] (setting [5]) and in assay [2] (pre-incubated for 4 hours) were >10 and >100, respectively. Moreover, the FGFR3/FGFR4 is >10 in assay [3] (setting [5]) and >100 in assay [3] (pre-incubated for 4 hours).
